Data reported in patent publication US6337333B1, “Method of treating autoimmune disease with fludarabine-5′-monophosphate” (priority 1992, dated 2002).

What was measured:
Type in all cases: cell-based, human
[1] = system: IgM production; experiment: Cumulative IgM production in SAC + rIL-2 cultures, EIA; conditions: for accumulation of IgM: 5 and 10 day SAC rIL-2 cultures, preliminary studies
Protocol: In FIG. 5, peripheral blood mononuclear cells (PBMC) enriched for B lymphocytes (BC89; 60% CD19, 59% CD20, 8% CD3) were continuously cultured at 5×10^5/ml and stimulated with Staphylococcus aureus Cowan I (SAC) plus interleukin 2 (IL-2) (50 U/ml) in the presence of 1.0 μg/ml of FLP. Recombinant IL-6 was added to 50 U/ml. After the culture period, the supernatants were harvested and assayed for huIgM by EIA. Results shown are from 1 representative experiment of 5 different experiments conducted with 5 different sources of leukocyte preparations. […]
(§1) In FIG. 7, peripheral blood mononuclear cells (PBMC) enriched for B lymphocytes (BC92; 35% CD19, 33% CD20, 35% CD3) were continuously cultured for 5 days in either medium alone, Staphylococcus aureus Cowan I (SAC) plus interleukin 2 (IL-2) (50 U/ml), or SAC plus IL-2 in the presence of various concentrations of FLP or 2-chlorodeoxyadenosine (2CDA). After 5 days of culture, the supernatants were harvested and serial dilutions of supernatant assayed for huIgM and huIgG by EIA. The presence of IgM rheumatoid factor (IgM-RF) was determined by EIA using the Vectastain Biotin-Streptavidin amplification system. Results are reported as O.D. 405 nm units. […] The results shown are from 1 representative experiment of 4 separate experiments conducted with 4 different sources of packed leukocytes.
(§2) In FIG. 8, peripheral blood mononuclear cells (PBMC) enriched for B lymphocytes (BC92, 35% CD19, 33% CD20, 35% CD3) were continuously cultured for 10 days in either medium alone, Staphylococcus aureus Cowan I (SAC) plus interleukin 2 (IL-2) (50 U/ml), or SAC plus IL-2 in the presence of various concentrations of FLP or 2CDA. At the end of the culture period, the supernatants were harvested and serial dilutions assayed for huIgM, huIgG, and IgM-RF by EIA. The cells were phenotyped by flowcytometry. Results are reported as O.D. 405 nm units. […] The results shown are from 1 experiment representative of 3 separate experiments conducted with 3 different sources of packed leukocytes.
(§3) In FIG. 9, peripheral blood mononuclear cells (PBMC) (BC93; 22% CD19, 20% CD20, 78% CD3) were continuously cultured for 5 days in either medium alone, Staphylococcus aureus Cowan I (SAC) plus interleukin 2 (IL-2) (50 U/ml) or 20% T cell conditioned medium (Tcm) in the presence of various concentrations of FLP. At the end of the 5 day culture period, the supernatants were harvested and serial dilutions assayed for huIgM, huIgG, and IgM-RF by EIA. The results are reported as O.D. 405 nm units. […] The results shown are from one representative experiment.
Immulon-2 (Dynatek Laboratories, #011-010-3450, Chantilly, Va.) flat-bottom 96 well microtiter plates were coated with 100 μl/well of a 2 μg/ml solution of goat F(ab′)2 anti-HuIgM (μ chain, CALTAG #H15100, So. San Francisco, Calif.) or goat F(ab′)2 anti-HuIgG (Fc sp., CALTAG #H10100) in 0.1 M sodium carbonate buffer, pH 9.6 overnight at 4° C. Uncoated wells were incubated with the carbonate buffer alone. The plates were rinsed and then incubated with 100 μl/well of 0.1% BSA/PBS for 1 hr at RT.

[2] = system: B lymphocytes; experiment: B lymphocyte proliferative response to mitogen after 18 hr drug pretreatment (3H-thymidine); conditions: 18 hr pretreatment; for % Suppression: B lymphocytes
Protocol: In FIG. 1, freshly isolated PBMC were enriched for T and B lymphocytes using Nylon Wool (see Materials and Methods, Example A). The enriched lymphocyte subpopulations were then incubated for 18 hrs at 37° C. with various concentrations of drug. At the end of the pretreatment period, the cell samples were washed, adjusted to 2×10^5 viable cells/ml, and cultured at 1×10^4/well in flat (B cells) or round (T cells) bottomed 96 well microtiter plates in […]. The T cells were incubated for 3 days with PHA-P ([…]) or Con A (5 μg/ml) and the B cells were cultured for 6 days with either PWM (2 μg/ml) or SAC ({fraction (1/60,000)}). 1 μCi of ^3H-thymidine was added per well during the last 18 hr of culture. The wells were then harvested onto glass fiber filters, and counted in 7 ml of Cytoscint (ICN) on the LKB 1219 Rackbeta scintillation counter. The results are expressed as the mean cpm of triplicate wells.
Peripheral blood mononuclear cells obtained from normal donors as packed leukocyte preparations were enriched for T and B lymphocytes and pretreated with drug for 18 hrs prior to mitogen stimulation.
Peripheral blood mononuclear cells enriched for either T or B lymphocytes were incubated for 18 hrs in complete S-10 medium at 37° C. in 12×75 mm culture tubes at 5×10^5 cells/ml. The cells were then washed in S-10 and cultured in triplicate for either 3 (T lymphocytes) or 6 (B lymphocytes) days at 2.5×10^4/well in round bottom 96-well microtiter plates in S-10 medium at 37° C. and a 5% CO2 humidified atmosphere. The wells were pulsed with 1 μCi 3H-thymidine for the last 18 hr of culture, harvested onto glass fiber filters, and counted with 7 ml Cytoscint with a LKB Rackbeta scintillation counter. The results are reported as “percent Suppression”:
% Suppression={1−(mean cpm exp./mean cpm stim control)}×100

[3] = system: IgM-RF production; experiment: Cumulative IgM-RF production in SAC + rIL-2 cultures, EIA; conditions: for effect on measurable IgM-RF: FIG. 7C; for accumulation of IgM-RF: 5 and 10 day SAC rIL-2 cultures, preliminary studies
Excerpt: as §1, §2, §3
The procedure to determine amounts of IgM-RF in culture supernatants was a modification of the methodology described above. Briefly, plates were coated with 100 μl/well of a 2.4 μg/ml solution of human IgG Fc fragments (Jackson ImmunoResearch, Chrompure #009-000-008) in 0.1 M sodium carbonate, pH 9.6 overnight at 4° C. The wells were blocked with 0.1% BSA/PBS for 1 hr at RT, and then serial dilutions of culture supernatant were cultured at 100 μl/well for 18-48 hrs at RT. A Vectastain Human IgM ABC-AP kit (Vector Laboratories, #AK-5009, Burlingame, Calif.) was used to develop the plates. […] Results are reported as O.D. units at 405 nm.

[4] = one microgram per ml, 5 days, FIG. 7A

SMILES: Nc1nc(F)nc2c1ncn2[C@@H]1O[C@H](COP(=O)(O)O)[C@@H](O)[C@@H]1O [FLP, fludarabine-5′-monophosphate]
- effect on IgM accumulation ([1]; 0.1 μg/ml, 10 days, FIG. 8A): minimal effect
- reduction of IgM accumulation ([1]; 1 μg, 10 days, FIG. 8A): 80%
- detectable IgM in supernatants ([1]; 1.0 μg/ml, 5 day cultures, FIG. 5): background levels
- reduction of IgM accumulation ([1]; 5 μg, 10 days, FIG. 8A): 98%
- effect on IgM accumulation ([1]; 5 μg/ml, 5 days, FIG. 7A): block any measurable IgM accumulation
- effect on IgM accumulation ([1]; 0.1 and 0.5 μg/ml, PBMC, 5 days, cultures containing rIL-2 or 20% T cell conditioned medium, FIG. 9A): reduce
- accumulation of IgM [1]: dose-related decrease
- effect on IgM production ([1]; one hundred nanograms per ml, 5 days, FIG. 7A): minimal effect
- effect on IgM production [1, 4]: intermediate effect
- suppression of B lymphocyte's ability to respond to mitogen ([2]; FIG. 1B): suppress
- % Suppression ([2]; PWM (1 μg/ml), BC5, 1 μg/ml of drug): 59%
- % Suppression ([2]; PWM (1 μg/ml), BC5, 5 μg/ml of drug): 47%
- % Suppression ([2]; PWM (1 μg/ml), BC6, 1 μg/ml of drug): 11%
- % Suppression ([2]; PWM (1 μg/ml), BC6, 5 μg/ml of drug): 40%
- % Suppression ([2]; PWM (1 μg/ml), BC7, 1 μg/ml of drug): 16%
- % Suppression ([2]; PWM (1 μg/ml), BC7, 5 μg/ml of drug): 65%
- % Suppression ([2]; SAC I (1/60,000), BC5, 1 μg/ml of drug): 14%
- % Suppression ([2]; SAC I (1/60,000), BC5, 5 μg/ml of drug): 5%
- % Suppression ([2]; SAC I (1/60,000), BC6, 1 μg/ml of drug): 0%
- % Suppression ([2]; SAC I (1/60,000), BC6, 5 μg/ml of drug): 49%
- % Suppression ([2]; SAC I (1/60,000), BC7, 1 μg/ml of drug): 55%
- % Suppression ([2]; SAC I (1/60,000), BC7, 5 μg/ml of drug): 73%
- IgM-RF production ([3]; 0.1 μg/ml, 10 days, FIG. 8C): 50 % of control
- effect on measurable IgM-RF ([3]; 1 μg/ml, 5 days): reduce the measurable IgM-RF
- level of measurable IgM-RF ([3]; 5 μg, 10 days, FIG. 8C): below the medium control levels
- effect on measurable IgM-RF ([3]; 5 μg/ml, 5 days): reduce the measurable IgM-RF
- effect on IgM-RF accumulation ([3]; 0.1 and 0.5 μg/ml, PBMC, 5 days, cultures containing rIL-2 or 20% T cell conditioned medium, FIG. 9C): reduce
- accumulation of IgM-RF [3]: dose-related decrease

SMILES: Nc1nc(Cl)nc2c1ncn2[C@H]1C[C@H](O)[C@@H](CO)O1 [2CDA, 2-chlorodeoxyadenosine]
- accumulation of IgM [1]: dose-related decrease
- effect on IgM production [1, 4]: block
- effect on IgM accumulation ([1]; one microgram per ml, 10 days): block the accumulation
- effect on measurable IgM-RF ([3]; 1 μg/ml, 5 days): less effect
- effect on IgM-RF accumulation compared with FLP ([3]; 1 μg/ml, 10 days): characteristics similar to FLP
- accumulation of IgM-RF [3]: dose-related decrease
